According to patent US20110306638A1, “BENZISOXAZOLE PIPERIDINYL DERIVATIVES, PHARMACEUTICAL COMPOSITIONS COMPRISING THE DERIVATIVES AND THEIR USE” (NHWA PHARMA. CORPORATION, priority 2008, published 2011):
Marks after values point to notes of the source that are not given here.

Assays:
[1] = target: T1, 5-HT reuptake by brain synapses (Rattus norvegicus, UniProt P31652); test: [3H]5-HT reuptake test in rat brain synapses; format: biochemical
T1 construct: forehead cortex was obtained for [^3H]5-HT, [^3H]NA reuptake test; from tissue; host or cells: rat (SD) forebrain cortex synaptosomes
Procedure: The method was as follows:
Male SD rats were killed by cervical dislocation, heads were immediately cut and brains were obtained and put on ice, related brain tissues were dissected (forehead cortex was obtained for [^3H]5-HT, [^3H]NA reuptake test, corpus striatum was obtained for [^3H]DA reuptake).
After the sample was weighed, 10 folds (V/W) ice cold 0.32 mol/L sucrose solution was added.
According to [a. […] 5-HT was added and after incubation in water bath at 37° C. for 10 min, the reaction mixture was immediately taken out of the water bath and 2 ml ice cold 150 mmol/L Tris-HCl was added to terminate the reaction. The sample was collected on a round glass fiber filter by vacuum filtration and washed three times with 3 ml ice cold Tris-HCl buffer. The filter membrane was removed, dried in a far-infrared oven for 15 min, then transferred into a EP tube, in which 1.5 ml scintillation fluid was added, left overnight and detected by a scintillation counter. The test sample was not added into solvent controlled overall binding tube or non-specific binding tube. 50 μl solvent was added into the overall binding tube, and in [^3H] 5-HT reuptake test, 600 μmol/L cocaine was added into the non-specific binding tube.

[2] = test system: Kunming mice; test: Hot-plate test in mice; format: in vivo; conditions: 1 h post dose
Procedure: Kunming mice, SPF KM mice were purchased from […] SLAC LABORATORY ANIMAL CO. LTD and kept in normal environment.
The compounds were dissolved in water for injection at a concentration of 4 mg/ml, 2 mg/ml and 1 mg/ml and were given subcutaneously to animals.
Three different doses (10, 20, and 40 mg/kg) were administered to the test groups.
Morphine was used as a positive control and hot plate test was used.
30-40 mice (half male and half female) weighed from 18 to 23 gram were used. First, each mouse was placed on a hot plat at 55° C. to determine basic pain threshold for 2-3 times. Those animals with basic pain threshold of 5-30 s were qualified, unqualified mice were not used. 30 qualified mice were divided into five groups, including negative control group, positive control group, low-dose group, medium-dose group and high-dose group:
Mice in test groups received test sample solution (10 mg/kg, 20 mg/kg, 40 mg/kg) via subcutaneous injection in the neck. Positive control group received subcutaneous injection of morphine (2 mg/kg). One hour later, pain threshold values were determined for mice in each group as post-drug pain threshold. Percentage increase in pain threshold was calculated according to the following equation: […]

[3] = target: opioid receptor subtype δ (Homo sapiens, UniProt P41143); test: Competitive binding to opioid receptor subtype δ, [3H]Diprenorphine
Procedure: The respective test compounds were added to the sample tube (final concentration of 10^−5M), incubated at 37° C. for 30 min and placed in ice bath to terminate the reaction. The reaction mixture was filtered through GF/C (Whatman) glass fiber filter by vacuum filtration on a Millipore sample collector. The filter was washed three times with 50 mM Tris-HCl (pH7.4), each with 4 ml; dried and transferred into a 0.5 ml Eppendorf tube, in which 0.5 ml lipophilic scintillation fluid was added. Radioactivity was detected by a LS6500 scintillation counter. Each concentration had three duplicate test tubes and each separate test was repeated 3 to 4 times.
Specific binding CMP value for each sample tube=overall binding CPM value for each sample tube−CPM value of non-specific binding tube.
[Inhibition percentage of competitive binding between the test compound and different opioid receptor subtypes (%)=(100%−specific binding (CPM value)of sample tube/specific binding(CPM value)of solvent group×100%)]
Average was taken for each test drug from three duplicate tubes; each test was repeated two or more times. Data were presented as mean±SE and statistical comparison was made by ANOVA.

[4] = Animal model study of II-9 (repeated dosing, addiction potential, oral absorption); format: in vivo

T1 sequence (P31652 whole entry): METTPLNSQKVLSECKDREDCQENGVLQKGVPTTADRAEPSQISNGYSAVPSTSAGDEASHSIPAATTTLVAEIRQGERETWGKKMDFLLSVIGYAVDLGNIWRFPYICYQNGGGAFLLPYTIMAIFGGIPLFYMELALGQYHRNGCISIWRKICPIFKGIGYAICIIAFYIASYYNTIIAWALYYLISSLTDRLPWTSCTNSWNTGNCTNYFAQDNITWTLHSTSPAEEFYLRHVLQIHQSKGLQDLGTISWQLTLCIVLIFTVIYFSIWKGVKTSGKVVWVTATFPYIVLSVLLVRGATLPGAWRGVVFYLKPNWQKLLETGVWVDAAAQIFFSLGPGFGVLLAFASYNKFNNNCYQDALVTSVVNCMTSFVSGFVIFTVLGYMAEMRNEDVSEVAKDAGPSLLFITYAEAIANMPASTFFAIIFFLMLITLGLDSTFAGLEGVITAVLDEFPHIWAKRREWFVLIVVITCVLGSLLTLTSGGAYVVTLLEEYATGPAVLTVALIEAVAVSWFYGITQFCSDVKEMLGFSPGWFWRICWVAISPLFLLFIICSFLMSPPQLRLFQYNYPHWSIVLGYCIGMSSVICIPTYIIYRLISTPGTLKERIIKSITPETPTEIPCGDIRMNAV
opioid receptor subtype δ, sequence (P41143 whole entry): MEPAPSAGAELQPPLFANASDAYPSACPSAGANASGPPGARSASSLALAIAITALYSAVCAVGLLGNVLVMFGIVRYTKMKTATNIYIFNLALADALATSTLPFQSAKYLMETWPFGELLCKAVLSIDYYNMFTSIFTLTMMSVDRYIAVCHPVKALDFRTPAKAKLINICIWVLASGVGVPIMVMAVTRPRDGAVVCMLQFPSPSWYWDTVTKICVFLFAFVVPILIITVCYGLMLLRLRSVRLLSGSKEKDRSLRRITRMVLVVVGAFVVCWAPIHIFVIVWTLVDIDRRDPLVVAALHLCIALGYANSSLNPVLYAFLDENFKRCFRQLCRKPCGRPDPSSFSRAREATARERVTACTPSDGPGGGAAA

N#Cc1ccc2ccn(CCCCN3CCC(c4noc5cc(F)ccc45)CC3)c2c1 [II-9, 1-(4-(4-(6-fluorobenzo[d]isoxazol-3-yl)piperidin-1-yl)butyl)-1H-indole-6-carbonitrile]
inhibitory activity on 5-HT reuptake (in words) ([1]; at 10 μmol/L, compared with Dutoxetine): potent inhibitory activities | inhibition at 10 µM ([1]; final concentration 10 umol/L, rat brain synapses, read-out: 5-HTU [3H] 5-HT reuptake inhibition percentage Mean): 105% | Percentage increase in pain threshold ([2]; 10 mg/kg S.c.): 97.98* % | Percentage increase in pain threshold ([2]; 20 mg/kg S.c.): 220.49** % | Percentage increase in pain threshold ([2]; 40 mg/kg S.c.): 229.39** % | affinity to opioid receptor subtype δ (in words) [3]: no obvious affinity | inhibition at 10 µM ([3]; tested concentration 10^−5 mol/L, read-out: δ inhibition percentage of competitive binding): 0% | drug tolerance ([4]; after repeated dosing): No drug tolerance is observed | potential for addiction ([4]; in vivo): rather low | absorption through oral administration ([4]; oral): well absorbed
